Tested on: Energy system protein genes
Assay: DNA chip mRNA expression in yeast, energy system protein genes (Table 4)
Type: cell-based, Saccharomyces cerevisiae S288C
Outline: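 Values are treated/untreated fluorescence ratios from a whole-genome yeast DNA chip hybridized over 12 hours at 65° C with Cy3- or Cy5-labelled cDNA from poly(A) mRNA. Log-phase S288C yeast in YPD at 25° C had received a single toxic chemical for two hours, dosed to slow growth without killing.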

N#Cc1c(Cl)c(Cl)c(Cl)c(C#N)c1Cl [(9), 2,4,5,6-tetrachloro-1,3-benzenedicarbonitrile]
The level of expressed mRNA in the presence of chemical substance/The level of expressed mRNA in the absence of chemical substance (yeast gene YJL121C, cells incubated two hours with the chemical substance): 0.1 | The level of expressed mRNA in the presence of chemical substance/The level of expressed mRNA in the absence of chemical substance (yeast gene YJL166W, cells incubated two hours with the chemical substance): 1.3 | The level of expressed mRNA in the presence of chemical substance/The level of expressed mRNA in the absence of chemical substance (yeast gene YJL216C, cells incubated two hours with the chemical substance): 1.5 | The level of expressed mRNA in the presence of chemical substance/The level of expressed mRNA in the absence of chemical substance (yeast gene YJR009C): 1.1 | The level of expressed mRNA in the presence of chemical substance/The level of expressed mRNA in the absence of chemical substance (yeast gene YJR048W): 0.5 | The level of expressed mRNA in the presence of chemical substance/The level of expressed mRNA in the absence of chemical substance (yeast gene YJR121W, cells incubated two hours with the chemical substance): 0.8 | The level of expressed mRNA in the presence of chemical substance/The level of expressed mRNA in the absence of chemical substance (yeast gene YJR155W): 38.2 | The level of expressed mRNA in the presence of chemical substance/The level of expressed mRNA in the absence of chemical substance (yeast gene YKL016C, cells incubated two hours with the chemical substance): 1.3 | The level of expressed mRNA in the presence of chemical substance/The level of expressed mRNA in the absence of chemical substance (yeast gene YKL060C, cells incubated two hours with the chemical substance): 0.3 | The level of expressed mRNA in the presence of chemical substance/The level of expressed mRNA in the absence of chemical substance (yeast gene YKL141W, cells incubated two hours with the chemical substance): 0.8 | The level of expressed mRNA in the presence of chemical substance/The level of expressed mRNA in the absence of chemical substance (yeast gene YKL148C, cells incubated two hours with the chemical substance): 1.7 | The level of expressed mRNA in the presence of chemical substance/The level of expressed mRNA in the absence of chemical substance (yeast gene YKL150W): 1.1 | The level of expressed mRNA in the presence of chemical substance/The level of expressed mRNA in the absence of chemical substance (yeast gene YKR009C, cells incubated two hours with the chemical substance): 2.4 | The level of expressed mRNA in the presence of chemical substance/The level of expressed mRNA in the absence of chemical substance (yeast gene YKR058W, cells incubated two hours with the chemical substance, 25° C., YPD medium): 1.3 | The level of expressed mRNA in the presence of chemical substance/The level of expressed mRNA in the absence of chemical substance (yeast gene YKR097W): 1.9 | The level of expressed mRNA in the presence of chemical substance/The level of expressed mRNA in the absence of chemical substance (yeast gene YLL041C, cells incubated two hours with the chemical substance): 0.7 | The level of expressed mRNA in the presence of chemical substance/The level of expressed mRNA in the absence of chemical substance (yeast gene YLR038C, cells incubated two hours with the chemical substance): 0.4 | The level of expressed mRNA in the presence of chemical substance/The level of expressed mRNA in the absence of chemical substance (yeast gene YLR134W, cells incubated two hours with the chemical substance): 0.1 | The level of expressed mRNA in the presence of chemical substance/The level of expressed mRNA in the absence of chemical substance (yeast gene YLR258W, cells incubated two hours with the chemical substance): 0.8 | The level of expressed mRNA in the presence of chemical substance/The level of expressed mRNA in the absence of chemical substance (yeast gene YLR284C, cells incubated two hours with the chemical substance): 0.9 | The level of expressed mRNA in the presence of chemical substance/The level of expressed mRNA in the absence of chemical substance (yeast gene YLR295C, cells incubated two hours with the chemical substance, 25° C., YPD medium): 1.4 | The level of expressed mRNA in the presence of chemical substance/The level of expressed mRNA in the absence of chemical substance (yeast gene YLR304C, cells incubated two hours with the chemical substance): 0.1 | The level of expressed mRNA in the presence of chemical substance/The level of expressed mRNA in the absence of chemical substance (yeast gene YLR345W): 4.5 | The level of expressed mRNA in the presence of chemical substance/The level of expressed mRNA in the absence of chemical substance (yeast gene YLR354C, cells incubated two hours with the chemical substance): 0.4 | The level of expressed mRNA in the presence of chemical substance/The level of expressed mRNA in the absence of chemical substance (yeast gene YLR377C, cells incubated two hours with the chemical substance): 1.8 | The level of expressed mRNA in the presence of chemical substance/The level of expressed mRNA in the absence of chemical substance (yeast gene YLR395C, cells incubated two hours with the chemical substance): 1.0 | The level of expressed mRNA in the presence of chemical substance/The level of expressed mRNA in the absence of chemical substance (yeast gene YML087C): 1.9 | The level of expressed mRNA in the presence of chemical substance/The level of expressed mRNA in the absence of chemical substance (yeast gene YML120C, cells incubated two hours with the chemical substance): 1.3 | The level of expressed mRNA in the presence of chemical substance/The level of expressed mRNA in the absence of chemical substance (yeast gene YML129C, cells incubated two hours with the chemical substance): 1.4 | The level of expressed mRNA in the presence of chemical substance/The level of expressed mRNA in the absence of chemical substance (yeast gene YMR073C, cells incubated two hours with the chemical substance): 1.2 | The level of expressed mRNA in the presence of chemical substance/The level of expressed mRNA in the absence of chemical substance (yeast gene YMR118C): 9.3 | The level of expressed mRNA in the presence of chemical substance/The level of expressed mRNA in the absence of chemical substance (yeast gene YMR205C, cells incubated two hours with the chemical substance): 0.3 | The level of expressed mRNA in the presence of chemical substance/The level of expressed mRNA in the absence of chemical substance (yeast gene YMR261C, cells incubated two hours with the chemical substance): 1.6 | The level of expressed mRNA in the presence of chemical substance/The level of expressed mRNA in the absence of chemical substance (yeast gene YMR267W, cells incubated two hours with the chemical substance, 25° C., YPD medium): 0.4 | The level of expressed mRNA in the presence of chemical substance/The level of expressed mRNA in the absence of chemical substance (yeast gene YMR323W, cells incubated two hours with the chemical substance): 0.5 | The level of expressed mRNA in the presence of chemical substance/The level of expressed mRNA in the absence of chemical substance (yeast gene YNL071W): 1.1 | The level of expressed mRNA in the presence of chemical substance/The level of expressed mRNA in the absence of chemical substance (yeast gene YNL202W, cells incubated two hours with the chemical substance): 1.3 | The level of expressed mRNA in the presence of chemical substance/The level of expressed mRNA in the absence of chemical substance (yeast gene YNL241C): 3.4 | The level of expressed mRNA in the presence of chemical substance/The level of expressed mRNA in the absence of chemical substance (yeast gene YNL331C): 42.6 | The level of expressed mRNA in the presence of chemical substance/The level of expressed mRNA in the absence of chemical substance (yeast gene YOL086C, cells incubated two hours with the chemical substance): 0.1 | The level of expressed mRNA in the presence of chemical substance/The level of expressed mRNA in the absence of chemical substance (yeast gene YOL165C): 46.9 | The level of expressed mRNA in the presence of chemical substance/The level of expressed mRNA in the absence of chemical substance (yeast gene YOR142W, cells incubated two hours with the chemical substance): 1.1 | The level of expressed mRNA in the presence of chemical substance/The level of expressed mRNA in the absence of chemical substance (yeast gene YOR178C, cells incubated two hours with the chemical substance): 0.2 | The level of expressed mRNA in the presence of chemical substance/The level of expressed mRNA in the absence of chemical substance (yeast gene YOR388C, cells incubated two hours with the chemical substance): 0.1 | The level of expressed mRNA in the presence of chemical substance/The level of expressed mRNA in the absence of chemical substance (yeast gene YPL031C, cells incubated two hours with the chemical substance): 5.7 | The level of expressed mRNA in the presence of chemical substance/The level of expressed mRNA in the absence of chemical substance (yeast gene YPL061W, cells incubated two hours with the chemical substance): 1.3 | The level of expressed mRNA in the presence of chemical substance/The level of expressed mRNA in the absence of chemical substance (yeast gene YPL088W): 0.6 | The level of expressed mRNA in the presence of chemical substance/The level of expressed mRNA in the absence of chemical substance (yeast gene YPL171C): 60.0 | The level of expressed mRNA in the presence of chemical substance/The level of expressed mRNA in the absence of chemical substance (yeast gene YPL240C): 3.5 | The level of expressed mRNA in the presence of chemical substance/The level of expressed mRNA in the absence of chemical substance (yeast gene YPL262W, cells incubated two hours with the chemical substance): 1.4 | The level of expressed mRNA in the presence of chemical substance/The level of expressed mRNA in the absence of chemical substance (yeast gene YPL275W, cells incubated two hours with the chemical substance): 0.2 | The level of expressed mRNA in the presence of chemical substance/The level of expressed mRNA in the absence of chemical substance (yeast gene YPR048W, cells incubated two hours with the chemical substance): 4.0 | The level of expressed mRNA in the presence of chemical substance/The level of expressed mRNA in the absence of chemical substance (yeast gene YPR184W, cells incubated two hours with the chemical substance): 1.9

Source: patent US8192962B2, “Processes for detecting toxic substances” (Daikin Industries, Ltd., priority 2001, dated 2012)
